According to patent US7582767B2 (Biovitrum AB (publ.), priority 2005, dated 2009):
Structures can show the parent of a compound that is named as a salt. Where two headings read alike, the source gives them in different places.

How the values were obtained:
[1] = molecular target: 5-HT2a (Homo sapiens, UniProt P28223); assay: Selectivity binding 5-HT2a
[2] = molecular target: 5-HT2b (Homo sapiens, UniProt P41595); assay: Selectivity binding 5-HT2b
[3] = molecular target: 5-HT1b (Homo sapiens, UniProt P28222); assay: Selectivity binding 5-HT1b
[4] = molecular target: T1, human 5-HT6 receptor (Homo sapiens, UniProt P50406); assay: 5-HT6 binding assay ([3H]-LSD, SPA, membranes of transfected HEK293 cells)
T1 construct: expressed in transfected cells; host or cells: HEK293

[5] = molecular target: T2, 5-HT1a (Homo sapiens, UniProt P08908); assay: Selectivity binding 5-HT1a
T2 sequence (P08908 1-422): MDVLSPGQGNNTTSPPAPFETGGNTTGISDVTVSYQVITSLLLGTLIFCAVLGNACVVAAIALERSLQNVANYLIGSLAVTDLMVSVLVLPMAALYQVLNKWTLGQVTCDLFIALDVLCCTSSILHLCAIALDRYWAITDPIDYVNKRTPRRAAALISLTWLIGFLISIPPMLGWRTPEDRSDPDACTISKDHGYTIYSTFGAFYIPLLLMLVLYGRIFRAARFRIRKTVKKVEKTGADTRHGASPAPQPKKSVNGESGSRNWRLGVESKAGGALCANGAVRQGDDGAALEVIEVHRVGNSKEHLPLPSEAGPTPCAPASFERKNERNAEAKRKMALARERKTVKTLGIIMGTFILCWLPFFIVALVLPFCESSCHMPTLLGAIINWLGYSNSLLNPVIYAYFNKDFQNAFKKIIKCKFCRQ

[6] = molecular target: T3, β2 (Homo sapiens, UniProt P07550); assay: β2 binding (human recombinant, Sf9 cells)
T3 construct: expressed in transfected cells; host or cells: Sf9 cells

[7] = molecular target: T4, 5-HT3 (Homo sapiens, UniProt P46098); assay: 5-HT3 binding (human recombinant, HEK-293 cells)
T4 construct: expressed in transfected cells; host or cells: HEK-293 cells
T4 sequence (P46098 24-478): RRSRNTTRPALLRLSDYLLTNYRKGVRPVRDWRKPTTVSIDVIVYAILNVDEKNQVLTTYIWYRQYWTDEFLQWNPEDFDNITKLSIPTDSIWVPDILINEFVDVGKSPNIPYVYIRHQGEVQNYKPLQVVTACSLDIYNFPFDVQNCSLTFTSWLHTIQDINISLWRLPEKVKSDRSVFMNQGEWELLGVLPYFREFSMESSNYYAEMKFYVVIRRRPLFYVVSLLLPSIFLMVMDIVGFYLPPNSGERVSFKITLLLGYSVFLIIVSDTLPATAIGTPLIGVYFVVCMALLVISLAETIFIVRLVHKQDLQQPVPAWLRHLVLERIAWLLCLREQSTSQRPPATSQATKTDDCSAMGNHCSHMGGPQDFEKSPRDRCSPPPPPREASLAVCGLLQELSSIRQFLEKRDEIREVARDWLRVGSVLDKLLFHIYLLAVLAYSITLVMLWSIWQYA

[8] = molecular target: T1, human 5-HT6 receptor; assay: 5-HT6 intrinsic activity assay (inhibition of 5-HT induced increase in cAMP); assay type: cell-based
[9] = molecular target: T5, 5-HT2c (Homo sapiens, UniProt P28335); assay: Selectivity binding 5-HT2c
T5 sequence (P28335 33-458): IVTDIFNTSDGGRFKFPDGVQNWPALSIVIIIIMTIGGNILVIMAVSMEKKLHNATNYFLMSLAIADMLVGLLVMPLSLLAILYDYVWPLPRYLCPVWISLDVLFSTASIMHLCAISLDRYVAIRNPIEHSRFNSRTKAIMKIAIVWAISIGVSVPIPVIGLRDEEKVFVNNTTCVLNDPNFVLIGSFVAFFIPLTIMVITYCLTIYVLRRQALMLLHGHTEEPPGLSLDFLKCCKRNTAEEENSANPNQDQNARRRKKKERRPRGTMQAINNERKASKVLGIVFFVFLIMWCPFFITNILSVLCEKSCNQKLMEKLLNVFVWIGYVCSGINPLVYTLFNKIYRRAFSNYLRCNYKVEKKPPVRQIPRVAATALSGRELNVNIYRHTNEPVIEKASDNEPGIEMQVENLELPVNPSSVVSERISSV

[10] = molecular target: T6, κ (KOP) (Cavia porcellus, UniProt P41144); assay: κ (KOP) binding (guinea-pig cerebellum)
T6 construct: Guinea-pig cerebellum; from tissue; host or cells: guinea-pig cerebellum

[11] = molecular target: T7, β1 (Homo sapiens, UniProt P08588); assay: β1 binding (human recombinant, HEK-293 cells)
T7 construct: expressed in transfected cells; host or cells: HEK-293 cells

[12] = test system: body weight of DIO rats; assay: Effect on body weight, 28 days oral treatment of DIO rats; assay type: in vivo, male Sprague-Dawley rats; conditions: for Body weight Mean (g) Day 28: 28 days; for Basal Mean (%) Day 28: body weight % of basal; for Body weight gain Mean: day 28-initial; for Reduction % of vehicle / Reduction gram: versus vehicle at day 28
Experimental: (§1) (c) Effect on Body Weight and on Food Intake
(§2) The corresponding solution was used as vehicle. The stability of the solutions were checked upon storage for 14 days. Solutions were formulated twice a week and stored in freezer. The solutions were analysed for the actual concentrations and found similar between the two occasions.
(§3) Hundred (100) male Sprague-Dawley rats were raised on high fat diet at Scanbur BK AB (Sollentuna, Sweden) which upon their arrival to the Biovitrum animal care facility weighed approximately 700 g (17 weeks old). The rats were conditioned and weighed for approximately three weeks after their arrival. The rats were singly stored in standard cages during constant room conditions (temp 22+/−1° C., humidity 40-60%, 12 h light/dark cycle, lights off at 10 am). The rats received the same high fat diet (45 kcal % fat, 4.7 kcal/g; D12451) as they received at Scanbur. The diets were purchased from Research Diets, Inc., New Jersey, USA, consisted of pellets and were stored under dry and cold conditions.
(§4) The high fat fed animals which gained the highest weight were selected. This population weighed 799±60 g. The selected forty-eight (48) rats were randomized and divided into […] treatment groups in order to obtain as homogeneous groups according to body weight as possible. Each treatment group consisted of 12 rats: Group 1—vehicle, Group 2—Example 1-5 mg/kg (11 μmol/kg), Group 3—Example 1-15 mg/kg (33 μmol/kg), Group 4—Example 1-30 mg/kg (66 μmol/kg). Further nine (9) rats were allocated for measurement of compound exposure and pharmacokinetics at each dose group in parallel for the seventh and the twentyninth days. The study was started by baseline measurements for five days in order to accustom the rats to the procedure and to the experimentalists. Test compound was administered orally once a day at 9-10 am in a volume of 2.5 ml/kg i.e.an average of 2 ml per (800 g) rat. Pellets and body were weighed each day in connection with the injections. Water bottles were weighed once a week. The weighings were done with a computer-assisted Mettler Toledo PR 5002 balance. All data were transferred into an Excel template.
(§5) The food and water intake, and body weight data are calculated in gram and % of basal and expressed as mean +/−SD and/or +/−SEM.
(§6) The data of body weight and food intake was statistically analysed by two-way univariate ANOVA with repeated measurements (treatment x time) followed by one-way ANOVA for comparison between treatment groups at selected time points. Clinical chemistry measurements were analysed by one-way ANOVA followed by Dunnetts t-test for test of significance of treatment groups versus vehicle control. A difference between two groups was considered significant if P<0.05. Statistical evaluation was performed using SPSS for Windows.

[13] = molecular target: κ (KOP) (Homo sapiens, UniProt P41145); assay: κ (KOP) EC50 (method not described)
[14] = test system: food intake of DIO rats; assay: Effect on food intake, 28 days oral treatment of DIO rats; assay type: in vivo, male Sprague-Dawley rats; conditions: for food intake versus vehicle, Dunnets t-test: first seven days
Experimental: as §1, §2, §3, §4, §5, §6

[15] = read-out: 5-HT2a Selectivity Binding (Ki)
[16] = read-out: 5-HT1b Selectivity Binding (Ki)
[17] = competition with 3 nM [3H] LSD, HEK293 membranes, read-out: 5-HT6 Binding (Ki)
[18] = read-out: 5-HT1a Selectivity Binding (Ki)
[19] = read-out: 5-HT2c Selectivity Binding (Ki)

T1 sequence (P50406 whole entry): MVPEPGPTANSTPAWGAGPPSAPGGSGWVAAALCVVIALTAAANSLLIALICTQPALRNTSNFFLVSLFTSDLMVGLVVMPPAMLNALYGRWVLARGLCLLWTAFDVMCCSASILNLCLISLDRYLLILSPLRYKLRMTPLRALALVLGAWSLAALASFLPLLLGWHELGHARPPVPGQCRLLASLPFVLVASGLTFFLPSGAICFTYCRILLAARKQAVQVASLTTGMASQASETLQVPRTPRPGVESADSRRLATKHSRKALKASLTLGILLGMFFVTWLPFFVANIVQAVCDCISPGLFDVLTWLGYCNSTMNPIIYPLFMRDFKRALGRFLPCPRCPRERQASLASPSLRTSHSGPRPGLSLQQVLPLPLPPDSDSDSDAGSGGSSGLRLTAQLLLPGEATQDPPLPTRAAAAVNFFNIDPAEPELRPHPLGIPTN
Chain of 5-HT2b (P41595 whole entry, species assumed): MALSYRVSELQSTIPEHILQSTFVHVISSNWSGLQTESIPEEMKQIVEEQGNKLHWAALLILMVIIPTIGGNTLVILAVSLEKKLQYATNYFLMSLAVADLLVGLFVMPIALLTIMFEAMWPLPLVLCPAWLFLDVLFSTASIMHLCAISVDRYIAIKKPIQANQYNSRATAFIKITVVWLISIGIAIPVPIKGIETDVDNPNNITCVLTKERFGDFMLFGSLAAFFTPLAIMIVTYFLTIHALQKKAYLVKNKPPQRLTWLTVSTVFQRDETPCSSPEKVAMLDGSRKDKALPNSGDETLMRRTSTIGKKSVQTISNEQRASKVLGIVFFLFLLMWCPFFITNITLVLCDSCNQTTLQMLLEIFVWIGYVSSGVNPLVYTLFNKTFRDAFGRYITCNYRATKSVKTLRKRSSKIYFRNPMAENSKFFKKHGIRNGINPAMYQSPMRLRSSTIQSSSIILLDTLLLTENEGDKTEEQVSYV
Chain of 5-HT2a (P28223 whole entry, species assumed): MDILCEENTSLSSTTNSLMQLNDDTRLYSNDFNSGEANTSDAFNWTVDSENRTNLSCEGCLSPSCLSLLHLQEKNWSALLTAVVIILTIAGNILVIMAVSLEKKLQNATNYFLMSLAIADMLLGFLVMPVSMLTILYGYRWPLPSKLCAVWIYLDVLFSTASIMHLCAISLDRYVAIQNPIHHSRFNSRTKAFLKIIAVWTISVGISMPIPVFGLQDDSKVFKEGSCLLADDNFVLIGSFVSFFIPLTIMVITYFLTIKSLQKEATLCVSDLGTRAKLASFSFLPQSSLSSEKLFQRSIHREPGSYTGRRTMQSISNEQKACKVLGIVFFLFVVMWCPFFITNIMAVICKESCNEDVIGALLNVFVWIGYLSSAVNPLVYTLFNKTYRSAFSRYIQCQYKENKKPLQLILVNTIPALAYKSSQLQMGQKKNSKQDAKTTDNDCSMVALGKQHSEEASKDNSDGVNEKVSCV
T6 sequence (P41144 whole entry): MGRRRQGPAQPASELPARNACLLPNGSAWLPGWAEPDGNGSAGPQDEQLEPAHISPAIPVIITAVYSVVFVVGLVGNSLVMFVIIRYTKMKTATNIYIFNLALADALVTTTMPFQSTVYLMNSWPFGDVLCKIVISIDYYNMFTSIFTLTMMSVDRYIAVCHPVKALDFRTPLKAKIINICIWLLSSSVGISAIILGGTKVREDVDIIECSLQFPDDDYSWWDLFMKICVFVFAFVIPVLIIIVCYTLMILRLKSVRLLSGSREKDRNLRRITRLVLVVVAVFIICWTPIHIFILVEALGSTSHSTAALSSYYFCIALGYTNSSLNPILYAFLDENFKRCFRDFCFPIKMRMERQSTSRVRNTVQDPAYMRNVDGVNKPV
Chain of 5-HT1b (P28222 whole entry, species assumed): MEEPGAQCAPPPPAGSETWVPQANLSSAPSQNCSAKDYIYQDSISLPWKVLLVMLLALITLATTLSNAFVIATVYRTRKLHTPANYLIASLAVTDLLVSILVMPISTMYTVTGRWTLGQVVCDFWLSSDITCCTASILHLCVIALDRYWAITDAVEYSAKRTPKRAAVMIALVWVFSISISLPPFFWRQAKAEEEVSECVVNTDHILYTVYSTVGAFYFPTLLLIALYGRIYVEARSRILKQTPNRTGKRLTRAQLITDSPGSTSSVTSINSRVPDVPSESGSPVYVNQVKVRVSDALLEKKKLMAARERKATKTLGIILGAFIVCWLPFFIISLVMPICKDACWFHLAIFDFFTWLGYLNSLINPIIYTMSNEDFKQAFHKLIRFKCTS
T7 sequence (P08588 whole entry): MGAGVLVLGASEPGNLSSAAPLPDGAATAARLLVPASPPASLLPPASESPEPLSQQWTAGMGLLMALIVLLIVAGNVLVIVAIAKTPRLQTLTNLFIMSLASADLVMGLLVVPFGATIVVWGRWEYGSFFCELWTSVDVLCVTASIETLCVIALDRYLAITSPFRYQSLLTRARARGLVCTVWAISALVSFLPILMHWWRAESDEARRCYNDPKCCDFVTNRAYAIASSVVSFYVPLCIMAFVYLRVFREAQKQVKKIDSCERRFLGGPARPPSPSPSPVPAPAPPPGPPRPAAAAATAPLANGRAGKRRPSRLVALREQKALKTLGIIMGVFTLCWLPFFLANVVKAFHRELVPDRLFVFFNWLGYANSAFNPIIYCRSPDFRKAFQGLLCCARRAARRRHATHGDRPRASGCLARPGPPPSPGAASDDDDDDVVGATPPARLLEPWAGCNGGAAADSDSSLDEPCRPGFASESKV
T3 sequence (P07550 whole entry): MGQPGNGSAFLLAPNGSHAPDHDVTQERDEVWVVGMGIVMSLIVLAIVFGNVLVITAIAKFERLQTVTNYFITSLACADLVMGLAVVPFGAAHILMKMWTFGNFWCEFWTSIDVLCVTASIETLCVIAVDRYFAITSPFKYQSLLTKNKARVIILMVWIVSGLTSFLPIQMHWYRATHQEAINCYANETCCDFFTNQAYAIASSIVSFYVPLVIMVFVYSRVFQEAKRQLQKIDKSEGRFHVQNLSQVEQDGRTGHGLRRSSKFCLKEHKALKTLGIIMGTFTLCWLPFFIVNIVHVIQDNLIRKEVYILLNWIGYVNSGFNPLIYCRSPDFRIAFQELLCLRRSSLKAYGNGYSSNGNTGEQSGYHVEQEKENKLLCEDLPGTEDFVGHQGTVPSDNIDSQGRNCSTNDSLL
Chain of κ (KOP) (Homo sapiens, UniProt P41145) (P41145 whole entry): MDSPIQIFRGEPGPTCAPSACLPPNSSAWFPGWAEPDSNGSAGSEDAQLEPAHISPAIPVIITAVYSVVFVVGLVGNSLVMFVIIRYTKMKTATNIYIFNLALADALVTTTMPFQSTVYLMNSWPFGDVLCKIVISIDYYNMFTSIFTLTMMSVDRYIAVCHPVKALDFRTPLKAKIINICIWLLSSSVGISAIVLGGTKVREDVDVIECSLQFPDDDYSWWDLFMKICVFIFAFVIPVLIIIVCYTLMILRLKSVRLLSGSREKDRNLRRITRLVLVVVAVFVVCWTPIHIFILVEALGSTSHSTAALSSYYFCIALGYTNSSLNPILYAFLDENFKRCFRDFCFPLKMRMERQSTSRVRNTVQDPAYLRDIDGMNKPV

## Cl.O=S(=O)(Nc1cc(OC2CCNCC2)c2occc2c1)c1ccc(Cl)s1 [Compound A, 5-chlorothiophene-2-sulphonic acid, [7-(piperidin-4-yloxy)-benzofuran-5-yl]amide, hydrochloride]
[1]; [15]
  Ki: > 1000 nM
[2]
  Ki: 356 nM
[3]; [16]
  Ki: 1470 nM
[4]; [17]
  Ki: 9 nM
[5]; [18]
  Ki: 1520 nM
[6]
  β2 Binding % inihibition 1 μM: 89%
[7]
  5-HT3 Binding % inihibition 1 μM: 90%
[8]
  Ki: 6 nM
[9]; [19]
  Ki: > 1000 nM
[10]
  κ (KOP) Binding % inihibition 1 μM: 71%
[11]
  β1 Binding % inihibition 1 μM: 80%

## O=S(=O)(Nc1cc(OC2CCNCC2)c2occc2c1)c1ccccc1C(F)(F)F [Compound B, N-[7-(4-piperidinyloxy)-1-benzofuran-5-yl]-2-trifluoromethylbenzenesulphonamide]
[1]; [15]
  Ki: > 1000 nM
[2]
  Ki: 545 nM
[3]; [16]
  Ki: 1290 nM
[4]; [17]
  Ki: 4 nM
[5]; [18]
  Ki: > 1000 nM
[6]
  β2 Binding % inihibition 1 μM: 82%
[7]
  5-HT3 Binding % inihibition 1 μM: 91%
[8]
  Ki: 3 nM
[9]; [19]
  Ki: > 1000 nM
[10]
  κ (KOP) Binding % inihibition 1 μM: 83%
[11]
  β1 Binding % inihibition 1 μM: 82%

## COc1cccc(C)c1NS(=O)(=O)c1cc(OC2CCNCC2)c2occc2c1 [Compound C]
[1]; [15]
  Ki: 1000 nM
[2]
  Ki: 600 nM
[4]
  Ki: 26 nM
[8]
  Ki: 51 nM
[9]; [19]
  Ki: 1250 nM

## O=S(=O)(Nc1cc(N2CCNCC2)c2occc2c1)c1cccc2ccccc12 [Ex. 148, N-(7-piperazin-1-yl-benzofuran-5-yl)-1-naphthylsulphonamide, hydrochloride]
[1]; [15]
  Ki: 412 nM
[2]
  Ki: 19.7 nM
[4]; [17]
  Ki: 0.18 nM
[8]
  Ki: 6 nM
[9]; [19]
  Ki: 158 nM

## COc1ccc(C)cc1NS(=O)(=O)c1cc(OC2CCNCC2)c2occc2c1 [Example 1]
[1]; figure in parentheses after the bound, read-out: 5-HT2a Selectivity Binding (Ki), value in parentheses
  Ki: 5600 nM
[1]; [15]
  Ki: > 1000 nM
[2]
  Ki: 440 nM
[3]; figure in parentheses after the bound, read-out: 5-HT1b Selectivity Binding (Ki), value in parentheses
  Ki: 3600 nM
[3]; [16]
  Ki: > 1000 nM
[4]; at 50 nM, either/or statement of b82, read-out: % inhibition of [3H] LSD (general statement)
  inhibition at 0.05 µM: ≥ 20%
[5]; figure in parentheses after the bound, read-out: 5-HT1a Selectivity Binding (Ki), value in parentheses
  Ki: 1400 nM
[5]; [18]
  Ki: > 1000 nM
[7]
  Ki: 190 nM
[12]; 5 mg/kg p.o. once a day
  Body weight Mean (g) Day 28: 845 g
[12]; 5 mg/kg p.o.
  Basal Mean (%) Day 28: 103.5%
  Body weight gain Mean: 29 g
  Reduction % of vehicle: 3.9%
  Reduction gram: −31 gram
[12]; 15 mg/kg p.o. once a day
  Body weight Mean (g) Day 28: 834 g
[12]; 15 mg/kg p.o.
  Basal Mean (%) Day 28: 103.7%
  Body weight gain Mean: 30 g
  Reduction % of vehicle: 3.7%
  Reduction gram: −30 gram
[12]; 30 mg/kg p.o. once a day
  Body weight Mean (g) Day 28: 810 g
[12]; 30 mg/kg p.o.
  Basal Mean (%) Day 28: 100.6%
  Body weight gain Mean: 4 g
  Reduction % of vehicle: 6.9%
  Reduction gram: −57 gram
[12]; 5, 15, 30 mg/kg p.o., four weeks, repeated ANOVA P<0.001
  body weight throughout the whole treatment period: decreased significantly
[12]; third dose of the sentence, printed as 15 mg/kg
  reduction in body weight: 6.9%
[9]; figure in parentheses after the bound, read-out: 5-HT2c Selectivity Binding (Ki), value in parentheses
  Ki: 2300 nM
[9]; [19]
  Ki: > 1000 nM
[13]
  EC50: 3780 nM
[10]
  Ki: 120 nM
[14]; 15 mg/kg p.o.
  food intake versus vehicle, Dunnets t-test: significantly different from vehicle
[14]; 30 mg/kg p.o.
  food intake versus vehicle, Dunnets t-test: significantly different from vehicle
[14]; all dose groups, P<0.076
  food intake, days 8 to 14 and rest of the treatment period: remained decreased during the rest of the treatment period, although not statistically significant
[14]; all dose groups, repeated ANOVA P<0.001
  food intake during the first seven days: decreased food intake significantly
[14]; food intake, p.o.
  minimum effective dose: 15 mg/kg

## CN1C[C@@H](NS(=O)(=O)N(C)C)C[C@@H]2c3cccc4c3c(cn4C)C[C@H]21 [mesulergide]
[4]; [17]
  Ki: 1970 nM

## COc1ccc(C)cc1NS(=O)(=O)c1cc(OC2CCCNC2)c2occc2c1 (stereo not shown) [Compound D]
[1]; [15]
  Ki: 917 nM
[2]
  Ki: 1450 nM
[4]
  Ki: 14 nM
[8]
  Ki: 37 nM
[9]; [19]
  Ki: 1370 nM
